Consider 2 molecules from US12404345B2, “Humanized antibodies against iRHOM2” (SCIRHOM GMBH, priority 2021, dated 2025).

Usually inhibition stands for the relative decrease from the control value, in per cent. A high value points to a strong effect.

Experiment [1] has as its system PMA-induced release of endogenous IL-6R from human PBMCs from healthy donors. As to the kind of experiment: ELISA-based IL-6R release assay, PMA-induced, PBMCs from healthy donors. Particulars: PBMC, Batimastat 10 μM, PMA 25 ng/ml, 24 hours. The class given is cell-based. The procedure:
In the following study, ELISA-based IL-6R release assays were performed to analyze the inhibitory effects of the antibodies of the invention on PMA-induced release of endogenous IL-6R from primary human material obtained from healthy donors using peripheral blood mononuclear cells (PBMCs).
In brief, on day 1, Nunc black MaxiSorp® 96-well plates (Thermo Fisher Scientific, USA) were coated overnight with 100 μl per well of mouse anti-human IL-6R capture antibody (provided as part of the DuoSet ELISA kit) at 2 μg/ml TBS at 4° C. […]
Meanwhile, the 96-well plates were centrifuged to pellet cells. […] Using an infinite M1000 (Tecan Group, Switzerland) microplate reader, the fluorescence of each well was collected at an excitation wavelength of 435 nm and an emission wavelength of 555 nm.
Background: In an ELISA, binding on a coated surface is turned into a signal by an enzyme label.

The next experiment concerns RH-30 cells. As to the kind of experiment: FACS binding to RH-30 cells endogenously negative for iRhom2. Further details: species or system human. The following applies: antibody at 3 μg/ml. The procedure: In this study, binding specificity analyses of the humanized antibody 42-B-02 as a representative example of the antibodies of the invention in cell lines endogenously expressing iRhom2 were performed. The studies were conducted on RPMI-8226 cells, a human B lymphocytic cell line endogenously expressing iRhom2 but being endogenously negative for iRhom1, on THP-1 cells, a human monocytic cell line endogenously expressing both iRhom2 and iRhom1 and on RH-30 cells, a human […] cell line endogenously negative for iRhom2 but endogenously expressing iRhom1.
In brief, human RPMI-8226 cells (Deutsche Sammlung von Mikroorganismen und Zellkulturen, Germany), THP-1 cells (American Type Culture Collection, USA) and RH-30 cells (Deutsche Sammlung von Mikroorganismen und Zellkulturen, Germany) were harvested with 10 mM EDTA in PBS, washed and resuspended in FACS buffer (PBS, 3% FBS, 0.05% sodium azide), and seeded in Nunc U-bottom 96-well plates (Thermo Fisher Scientific, USA) at approximately 2×10^5 cells per well. In order to pellet cells and remove supernatants, the plates were centrifuged at 1,500 rpm and 4° C. for 3 minutes. […] Finally, cells were resuspended in 150 μl per well of FACS buffer and analyzed using a BD Accuri™ C6 Plus flow cytometer (Becton Dickinson, Germany).
On the technique in general: A flow cytometer gives signals particle by particle.

Consider `CNC(=O)[C@H](Cc1ccccc1)NC(=O)[C@H](CC(C)C)[C@H](CSc1cccs1)C(=O)NO` [Batimastat], for which 10 µM produced 96.2% inhibition in experiment [1].

B1: 42-B-02: humanized antibody binding human iRhom2; HCVD SEQ ID NO 33, LCVD SEQ ID NO 37 (antibody, V domains shown)
VH: QVTLRESGPALVKPTQTLTLTCTFSGFSLSTFGRGVGWIRQPPGKALEWLAHIWWDDEKYYNSALKSRLTISKDTSKNQVVLTITNMDPVDTATYYCARIQNYGSNYWYFDVWGQGTLVTVSS
VL: AIQLTQSPSSLSASVGDRVTITCRASSRISYMFWYQQKPGKAPKVLIYDTSNLASGVPSRFSGSGSGTDYTLTISSLQPEDFATYYCQQWNSYPLTFGQGTKLEIK
modifications: antibody sequences
As for B1, the “binding to RH-30 cells (endogenously negative for iRhom2, expressing iRhom1)” value in the experiment with RH-30 cells was “no binding”.
